# Experiments:
# PC3 = experiment: Cytotoxicity propidium iodide assay, PC3; format: cell-based, human; conditions: for inhibition at 1 µM / IC50 / inhibition at 10 µM: Homo sapiens, PC-3; for inhibition at 1 µM: read-out: % Inhibition at 1 μM, C2a; for IC50: PC3 (prostate), 48 hours treatment, read-out: IC50 Values in μM, C2a; for inhibition at 10 µM: PC3, 10 μM (stated in cell), read-out: % Inhibition at 10 μM, C2a
# Method: (§1) The assay was designed as in the reference, Anticancer Drugs, 2002, 13, 1-8, the disclosure of which is incorporated herein by reference for the teaching of the assay.
# (§2) Cells from cell lines (ATCC) as mentioned in the table given below were seeded at a density of 3000 cells/well in a white opaque 96-well plate. Following incubation at 37° C./5% CO2 for a period of 18-24 hours, the cells were treated with various concentrations (stock solution was prepared in DMSO and subsequent dilutions were made in media as per ATCC guidelines) of the compounds of the present invention for a period of 48 hours. At the end of treatment, the culture medium was discarded, the cells were washed with 1×PBS and 200 μL of […] propidium iodide was added to each well. The plates were frozen at […] overnight. For analysis, the plates were warmed to RT, allowed to thaw and were read in PoleStar fluorimeter with the fluorescence setting. The percentage of viable cells in the non-treated set of wells was considered to be 100 and the percentage viability following treatment was calculated accordingly. IC50 values were calculated from graphs plotted using these percentages. IC50 values for certain compounds of present invention are depicted in Table 1 and % Inhibition of certain compounds of present invention are depicted in Table 2.
# A2780 = experiment: Cytotoxicity propidium iodide assay, A2780; format: cell-based; conditions: for inhibition at 1 µM / IC50 / inhibition at 10 µM: Homo sapiens; for inhibition at 1 µM: read-out: % Inhibition at 1 μM, C1a; for IC50: A2780 (ovarian), 48 hours treatment, read-out: IC50 Values in μM, C1a; for inhibition at 10 µM: A2780, 10 μM (stated in cell), read-out: % Inhibition at 10 μM, C1a
# Method: as §1, §2
Molecule,"inhibition at 1 µM (PC3; PC3, 1 μM, 48 hours) [%]","inhibition at 1 µM (A2780; A2780, 1 μM, 48 hours) [%]",also measured
"6-Chloro-5-(3-methyl-2-oxo-8-(quinolin-3-yl)-2,3-dihydro-1H-imidazo[4,5-c]quinolin-1-yl)picolinonitrile [Example 58]",,,"% Inhibition at 1 μM, C2a (PC3; PC3, 1 μM, 48 hours): 60%; % Inhibition at 1 μM, C1a (A2780; A2780, 1 μM, 48 hours): 91%"
"Cn1c(=O)n(-c2ccc(C(C)(C)C#N)nc2)c2c3cc(-c4cncc(C(F)(F)F)c4)ccc3ncc21 [Example 4, 2-Methyl-2-(5-(3-methyl-2-oxo-8-(5-(trifluoromethyl)pyridin-3-yl)-2,3-dihydro-1H-imidazo[4,5-c]quinolin-1-yl)pyridin-2-yl)propanenitrile]",72.6,89.2,
"Cn1c(=O)n(-c2ccc(C(C)(C)C#N)nc2)c2c3cc(-c4cncc5ccccc45)ccc3ncc21 [Example 6, 2-(5-(8-(Isoquinolin-4-yl)-3-methyl-2-oxo-2,3-dihydro-1H-imidazo[4,5-c]quinolin-1-yl)pyridin-2-yl)-2-methylpropanenitrile]",69.5,85.3,
"CC(C)(C#N)c1ccc(-n2c(=O)n(CC#N)c3cnc4ccc(-c5cccnc5)cc4c32)cn1 [Example 14, 2-(5-(3-(Cyanomethyl)-2-oxo-8-(pyridin-3-yl)-2,3-dihydro-1H-imidazo[4,5-c]quinolin-1-yl)pyridin-2-yl)-2-methylpropanenitrile]",,,IC50 (PC3): 0.42 µM; IC50 (A2780): 0.4 µM
"COc1ccc(-n2c(=O)n(CC#N)c3cnc4ccc(-c5cccnc5)cc4c32)cn1 [Example 21, 2-(1-(6-Methoxypyridin-3-yl)-2-oxo-8-(pyridin-3-yl)-1H-imidazo[4,5-c]quinolin-3(2H)-yl)acetonitrile]",27,38,
"COc1ccc(-n2c(=O)n(C)c3cnc4ccc(-c5cncc(C(F)(F)F)c5)cc4c32)cn1 [Example 22, 1-(6-Methoxypyridin-3-yl)-3-methyl-8-(5-(trifluoromethyl)pyridin-3-yl)-1H-imidazo[4,5-c] quinolin-2(3H)-one]",67.8,83.1,
"COc1ccc(-n2c(=O)n(CC#N)c3cnc4ccc(-c5cnc6ccccc6c5)cc4c32)cn1 [Example 24, 2-(1-(6-Methoxypyridin-3-yl)-2-oxo-8-(quinolin-3-yl)-1H-imidazo[4,5-c]quinolin-3(2H)-yl)acetonitrile]",39,66,
"COc1ccc(-n2c(=O)n(C)c3cnc4ccc(-c5ccc(N(C)C)nc5)cc4c32)cn1 [Example 25, 8-(6-(Dimethylamino)pyridin-3-yl)-1-(6-methoxypyridin-3-yl)-3-methyl-1H-imidazo[4,5-c] quinolin-2(3H)-one]",69,83.4,
"CCOc1ccc(-n2c(=O)n(C)c3cnc4ccc(-c5cnc(N)c(C(F)(F)F)c5)cc4c32)cn1 [Example 30, 8-(6-Amino-5-(trifluoromethyl)pyridin-3-yl)-1-(6-ethoxypyridin-3-yl)-3-methyl-1H-imidazo[4,5-c]quinolin-2(3H)-one]",71,94,
"COc1ccc(-n2c(=O)n(CC#N)c3cnc4ccc(-c5ccc(C(F)(F)F)nc5)cc4c32)c(C)n1 [Example 37, 2-(1-(6-Methoxy-2-methylpyridin-3-yl)-2-oxo-8-(6-(trifluoromethyl)pyridin-3-yl)-1H-imidazo[4,5-c]quinolin-3(2H)-yl)acetonitrile]",49.5,70,
"COc1ccc(-n2c(=O)n(C)c3cnc4ccc(-c5cnc(N)c(C(F)(F)F)c5)cc4c32)c(C)n1 [Example 38, 8-(6-Amino-5-(trifluoromethyl)pyridin-3-yl)-1-(6-methoxy-2-methylpyridin-3-yl)-3-methyl-1H-imidazo[4,5-c]quinolin-2(3H)-one]",,,IC50 (PC3): 0.0078 µM; IC50 (A2780): < 0.005 µM
"COc1ccc(-n2c(=O)n(C)c3cnc4ccc(-c5cncc(C(F)(F)F)c5)cc4c32)c(C)n1 [Example 39, 1-(6-Methoxy-2-methylpyridin-3-yl)-3-methyl-8-(5-(trifluoromethyl)pyridin-3-yl)-1H-imidazo[4,5-c]quinolin-2(3H)-one]",68.8,83.4,
"COc1ccc(-n2c(=O)n(C)c3cnc4ccc(-c5cnc6ccccc6c5)cc4c32)c(C)n1 [Example 41, 1-(6-Methoxy-2-methylpyridin-3-yl)-3-methyl-8-(quinolin-3-yl)-1H-imidazo[4,5-c]quinolin-2(3H)-one]",68,80,
"N#CCn1c(=O)n(-c2ccc(C#N)nc2)c2c3cc(-c4cccnc4)ccc3ncc21 [Example 42, 5-(3-(Cyanomethyl)-2-oxo-8-(pyridin-3-yl)-2,3-dihydro-1H-imidazo[4,5-c]quinolin-1-yl)picolinonitrile]",60 to 80,60 to 80,
"CC(C#N)n1c(=O)n(-c2ccc(C#N)nc2)c2c3cc(-c4cccnc4)ccc3ncc21 (centres unmarked) [Example 43, 5-(3-(1-Cyanoethyl)-2-oxo-8-(pyridin-3-yl)-2,3-dihydro-1H-imidazo[4,5-c]quinolin-1-yl)picolinonitrile]",13,8,
"Cn1c(=O)n(-c2ccc(C#N)nc2)c2c3cc(-c4cnc(N)c(C(F)(F)F)c4)ccc3ncc21 [Example 45, 5-(8-(6-Amino-5-(trifluoromethyl)pyridin-3-yl)-3-methyl-2-oxo-2,3-dihydro-1H-imidazo[4,5-c]quinolin-1-yl)picolinonitrile]",37,52,
"Cn1c(=O)n(-c2ccc(C#N)nc2)c2c3cc(-c4cccnc4F)ccc3ncc21 [Example 46, 5-(8-(2-Fluoropyridin-3-yl)-3-methyl-2-oxo-2,3-dihydro-1H-imidazo[4,5-c]quinolin-1-yl)picolinonitrile]",27,34,
"Cn1c(=O)n(-c2ccc(C#N)nc2)c2c3cc(-c4ccc(F)nc4)ccc3ncc21 [Example 47, 5-(8-(6-Fluoropyridin-3-yl)-3-methyl-2-oxo-2,3-dihydro-1H-imidazo[4,5-c]quinolin-1-yl)picolinonitrile]",,,inhibition at 10 µM (PC3; 48 hours): 40 to 60%; inhibition at 10 µM (A2780; 48 hours): 40 to 60%
"COc1ccc(-c2ccc3ncc4c(c3c2)n(-c2ccc(C#N)nc2)c(=O)n4C)cn1 [Example 48, 5-(8-(6-Methoxypyridin-3-yl)-3-methyl-2-oxo-2,3-dihydro-1H-imidazo[4,5-c]quinolin-1-yl)picolinonitrile]",,,inhibition at 10 µM (PC3; 48 hours): 40 to 60%; inhibition at 10 µM (A2780; 48 hours): 40 to 60%
"N#CCn1c(=O)n(-c2ccc(C#N)nc2)c2c3cc(-c4cnc5ccccc5c4)ccc3ncc21 [Example 51, 5-(3-(Cyanomethyl)-2-oxo-8-(quinolin-3-yl)-2,3-dihydro-1H-imidazo[4,5-c]quinolin-1-yl)picolinonitrile]",41,73,
"CC(C#N)n1c(=O)n(-c2ccc(C#N)nc2)c2c3cc(-c4cnc5ccccc5c4)ccc3ncc21 (centres unmarked) [Example 52, 5-(3-(1-Cyanoethyl)-2-oxo-8-(quinolin-3-yl)-2,3-dihydro-1H-imidazo[4,5-c]quinolin-1-yl)picolinonitrile]",12,36,
"Cn1c(=O)n(-c2ccc(C(F)(F)F)nc2)c2c3cc(-c4cccnc4)ccc3ncc21 [Example 53, 3-Methyl-8-(pyridin-3-yl)-1-(6-(trifluoromethyl)pyridin-3-yl)-1H-imidazo[4,5-c]quinolin-2(3H)-one]",,,IC50 (PC3): 0.75 µM; IC50 (A2780): 0.55 µM
"Cn1c(=O)n(-c2ccc(C(F)(F)F)nc2)c2c3cc(-c4ccc(C(F)(F)F)nc4)ccc3ncc21 [Example 56, 3-Methyl-1,8-bis(6-(trifluoromethyl)pyridin-3-yl)-1H-imidazo [4,5-c]quinolin-2(3H)-one]",32,57,
"Cn1c(=O)n(-c2ccc(Cl)nc2)c2c3cc(-c4cccnc4)ccc3ncc21 [Example 60, 1-(6-Chloropyridin-3-yl)-3-methyl-8-(pyridin-3-yl)-1H-imidazo[4,5-c]quinolin-2(3H)-one]",,,IC50 (PC3): 0.85 µM; IC50 (A2780): 0.68 µM
"Cn1c(=O)n(CCN2CCOCC2)c2c3cc(-c4cnc(N)c(C(F)(F)F)c4)ccc3ncc21 [Example 69, 8-(6-Amino-5-(trifluoromethyl)pyridin-3-yl)-3-methyl-1-(2-morpholinoethyl)-1H-imidazo[4,5-c]quinolin-2(3H)-one]",,,IC50 (PC3): 0.07 µM; IC50 (A2780): 0.022 µM

# Source: US20130310374A1, “Substituted Imidazoquinoline Derivatives” (PIRAMAL ENTERPRISES LIMITED`, priority 2010, published 2013)
